How the values were obtained:
OF1 mice [1] = assay: Murine maximal electroshock test (MES test); assay type: in vivo, mouse; details: for MES-Test (1 h, po) % protection @ 50: p.o., percentage of protected mice, printed '@ 50' (mg/kg); for ED50: Mus musculus, po, pre-treatment time 1 h
Procedure: Compounds of the invention were tested in OF1 mice using the maximal electroshock test (MES Test) described in detail by Schmutz et al., Naunyn-Schmiedeberg's Arch Pharmacol 1990, 342, 61-66. Briefly, generalized tonic-clonic convulsions of the hind extremities were induced by passing electrical current through temporal electrodes (50 Hz, 18 mA, 0.2 s). […] 30 mg/kg carbamazepine was used as a positive control; mice were classified as protected by a compound if the duration of the seizure lasted only 3 second or less. Five mice were used for each treatment condition and the percentage of protected mice was used as readout (i.e. a compound could give 0%, 20%, 40%, 60%, 80% or 100% protection). Compounds of the invention were given at a dose of 50 mg/kg, p.o., 1 hour prior to induction of convulsions (i.e. “pre-treatment time−1 h”).
ED50 values (ED: effective dose) were calculated using GraphPad Prism, v4.02.
15 s after shock administration, mouse blood was collected for determination of compounds' blood exposure.

mouse = assay: Oral activity in vivo (audiogenic mouse test and/or MES test); details: oral administration
Procedure: The oral bioavailability was tested using the audiogenic mouse test (Audiogenic seizures, R. L. Collins; Chapter 14, pages: 347-372. In: Experimental Models of Epilepsy; By: Pupura, Penry, Tower, Woodbury, Waiter, Raven Press, New York, 1972. Standard Book Number: 0-911216-26-X) and/or the MES test.

OF1 mice [2] = assay: Murine maximal electroshock test (MES test); assay type: in vivo, mouse; details: p.o., percentage of protected mice, printed '@ 25' (mg/kg)

Structure (SMILES) | MES-Test (1 h, po) % protection @ 50 (OF1 mice [1]) | In vivo orally active (mouse) | ED50 (OF1 mice [1]) | MES-Test (1 h, po) % protection @ 25 (OF1 mice [2])
Cn1nncc1-c1cc2c(=O)n(NS(C)(=O)=O)c(=O)[nH]c2cc1C(F)(F)F [Comparative, N-(6-(1-methyl-1H-1,2,3-triazol-5-yl)-2,4-dioxo-7-trifluoromethyl-1,4-dihydro-2H-quinazolin-3-yl]-methanesulfonamide, reference compound] | 0% @ 50^ | No |  | 
CC(O)c1cc2c(=O)n(NS(C)(=O)=O)c(=O)[nH]c2cc1C(F)(F)F (centres unmarked) [Compound A-1, N-[6-(1-Hydroxy-ethyl)-2,4-dioxo-7-trifluoromethyl-1,4-dihydro-2H-quinazolin-3-yl]-methanesulfonamide] |  | Yes | 64 mg/kg | 
COC(C)c1cc2c(=O)n(NS(C)(=O)=O)c(=O)[nH]c2cc1C(F)(F)F (centres unmarked) [Compound A-2, N-[6-(1-Methoxy-ethyl)-2,4-dioxo-7-trifluoromethyl-1,4-dihydro-2H-quinazolin-3-yl]-methanesulfonamide] |  | Yes | 6 mg/kg | 
CCC(O)c1cc2c(=O)n(NS(C)(=O)=O)c(=O)[nH]c2cc1C(F)(F)F (centres unmarked) [Compound A-3, N-[6-(1-Hydroxy-propyl)-2,4-dioxo-7-trifluoromethyl-1,4-dihydro-2H-quinazolin-3-yl]-methanesulfonamide] |  | Yes | 19.6 mg/kg | 
CC(C)OC(C)c1cc2c(=O)n(NS(C)(=O)=O)c(=O)[nH]c2cc1C(F)(F)F (centres unmarked) [Compound A-4, N-[6-(1-Isopropoxy-ethyl)-2,4-dioxo-7-trifluoromethyl-1,4-dihydro-2H-quinazolin-3-yl]-methanesulfonamide] |  | Yes | 15.6 mg/kg | 
CCOC(C)c1cc2c(=O)n(NS(C)(=O)=O)c(=O)[nH]c2cc1C(F)(F)F (centres unmarked) [Compound A-5, N-[6-(1-Ethoxy-ethyl)-2,4-dioxo-7-trifluoromethyl-1,4-dihydro-2H-quinazolin-3-yl]-methanesulfonamide] |  | Yes | 8.8 mg/kg | 
CCC(OC(C)C)c1cc2c(=O)n(NS(C)(=O)=O)c(=O)[nH]c2cc1C(F)(F)F (centres unmarked) [Compound A-7, N-[6-(1-Isopropoxy-propyl)-2,4-dioxo-7-trifluoromethyl-1,4-dihydro-2H-quinazolin-3-yl]-methanesulfonamide] |  | Yes | 24.7 mg/kg | 
CCOC(CC)c1cc2c(=O)n(NS(C)(=O)=O)c(=O)[nH]c2cc1C(F)(F)F (centres unmarked) [Compound A-13, N-[6-(1-Ethoxy-propyl)-2,4-dioxo-7-trifluoromethyl-1,4-dihydro-2H-quinazolin-3-yl]-methanesulfonamide] |  | Yes |  | 
CC(OC1CCCC1)c1cc2c(=O)n(NS(C)(=O)=O)c(=O)[nH]c2cc1C(F)(F)F (centres unmarked) [Compound A-14, N-[6-(1-Cyclopentyloxy-ethyl)-2,4-dioxo-7-trifluoromethyl-1,4-dihydro-2H-quinazolin-3-yl]-methanesulfonamide] |  | yes |  | 
CCCC(O)c1cc2c(=O)n(NS(C)(=O)=O)c(=O)[nH]c2cc1C(F)(F)F (centres unmarked) [Compound A-15, N-[6-(1-Hydroxy-butyl)-2,4-dioxo-7-trifluoromethyl-1,4-dihydro-2H-quinazolin-3-yl]-methanesulfonamide] |  | Yes | 35 mg/kg | 
COCCC(O)c1cc2c(=O)n(NS(C)(=O)=O)c(=O)[nH]c2cc1C(F)(F)F (centres unmarked) [Compound A-18, N-[6-(1-Hydroxy-3-methoxy-propyl)-2,4-dioxo-7-trifluoromethyl-1,4-dihydro-2H-quinazolin-3-yl]-methanesulfonamide] |  | Yes |  | 
CS(=O)(=O)Nn1c(=O)[nH]c2cc(C(F)(F)F)c(C3CCCO3)cc2c1=O (centres unmarked) [Compound B-2, N-[2,4-Dioxo-6-(tetrahydro-furan-2-yl)-7-trifluoromethyl-1,4-dihydro-2H-quinazolin-3-yl]-methanesulfonamide] |  | Yes |  | 
CS(=O)(=O)Nn1c(=O)[nH]c2cc(C(F)(F)F)c(C3CCOC3)cc2c1=O (centres unmarked) [Compound B-3, N-[2,4-Dioxo-6-(tetrahydro-furan-3-yl)-7-trifluoromethyl-1,4-dihydro-2H-quinazolin-3-yl]-methanesulfonamide] |  | Yes |  | 20% @ 25^3
COCCn1nccc1-c1cc2c(=O)n(NS(C)(=O)=O)c(=O)[nH]c2cc1C(C)C [Compound C-1, N-{7-Isopropyl-6-[2-(2-methoxy-ethyl)-2H-pyrazol-3-yl]-2,4-dioxo-1,4-dihydro-2H-quinazolin-3-yl}-methanesulfonamide] |  | yes |  | 40% @ 25^
CC(C)n1nccc1-c1cc2c(=O)n(NS(C)(=O)=O)c(=O)[nH]c2cc1C(F)(F)F [Compound C-2, N-[6-(2-Isopropyl-2H-pyrazol-3-yl)-2,4-dioxo-7-trifluoromethyl-1,4-dihydro-2H-quinazolin-3-yl]-methanesulfonamide] |  | Yes | 17.7 mg/kg | 
COCCn1nccc1-c1cc2c(=O)n(NS(C)(=O)=O)c(=O)[nH]c2cc1C(F)(F)F [Compound C-4, N-{6-[2-(2-Methoxy-ethyl)-2H-pyrazol-3-yl]-2,4-dioxo-7-trifluoromethyl-1,4-dihydro-2H-quinazolin-3-yl}-methanesulfonamide] |  | Yes |  | 
CS(=O)(=O)Nn1c(=O)[nH]c2cc(C(F)(F)F)c(-c3ccnn3O)cc2c1=O [Compound C-5, N-[6-(2-Hydroxy-2H-pyrazol-3-yl)-2,4-dioxo-7-trifluoromethyl-1,4-dihydro-2H-quinazolin-3-yl]-methanesulfonamide] |  | Yes |  | 
CCc1cc2[nH]c(=O)n(NS(C)(=O)=O)c(=O)c2cc1-c1ccnn1C(C)C [Compound C-6, N-[7-Ethyl-6-(2-isopropyl-2H-pyrazol-3-yl)-2,4-dioxo-1,4-dihydro-2H-quinazolin-3-yl]-methanesulfonamide] | 20% @ 50^ | yes |  | 
CC(C)c1cc2[nH]c(=O)n(NS(C)(=O)=O)c(=O)c2cc1-c1ccnn1C [Compound C-7, N-[7-Isopropyl-6-(2-methyl-2H-pyrazol-3-yl)-2,4-dioxo-1,4-dihydro-2H-quinazolin-3-yl]-methanesulfonamide] |  | Yes | 6.9 mg/kg | 
CC(C)c1cc2[nH]c(=O)n(NS(C)(=O)=O)c(=O)c2cc1-c1ccnn1C(C)C [Compound C-8, N-[7-Isopropyl-6-(2-isopropyl-2H-pyrazol-3-yl)-2,4-dioxo-1,4-dihydro-2H-quinazolin-3-yl]-methanesulfonamide] | 40% @ 50^ | yes |  | 
Cn1nccc1-c1cc2c(=O)n(NS(C)(=O)=O)c(=O)[nH]c2cc1C(F)F [Compound C-9, N-[7-Difluoromethyl-6-(2-methyl-2H-pyrazol-3-yl)-2,4-dioxo-1,4-dihydro-2H-quinazolin-3-yl]-methanesulfonamide] |  | Yes | 7.5 mg/kg | 
CC(C)n1nccc1-c1cc2c(=O)n(NS(C)(=O)=O)c(=O)[nH]c2cc1C(F)F [Compound C-10, N-[7-Difluoromethyl-6-(2-isopropyl-2H-pyrazol-3-yl)-2,4-dioxo-1,4-dihydro-2H-quinazolin-3-yl]-methanesulfonamide] |  | Yes | 20.3 mg/kg | 
CCc1cc2[nH]c(=O)n(NS(C)(=O)=O)c(=O)c2cc1-c1ccnn1C [Compound C-11, N-[7-Ethyl-6-(2-methyl-2H-pyrazol-3-yl)-2,4-dioxo-1,4-dihydro-2H-quinazolin-3-yl]-methanesulfonamide] |  | Yes | 6.1 mg/kg | 
CCc1cc2[nH]c(=O)n(NS(C)(=O)=O)c(=O)c2cc1-c1ccnn1CC [Compound C-12, N-[7-Ethyl-6-(2-ethyl-2H-pyrazol-3-yl)-2,4-dioxo-1,4-dihydro-2H-quinazolin-3-yl]-methanesulfonamide] |  | Yes | 42.8 mg/kg | 
CC(C)n1nccc1-c1cc2c(=O)n(NS(C)(=O)=O)c(=O)[nH]c2cc1C(C)(F)F [Compound C-16, N-[7-(1,1-difluoro-ethyl)-6-(2-isopropyl-2H-pyrazol-3-yl)-2,4-dioxo-1,4-dihydro-2H-quinazolin-3-yl]-methanesulfonamide] |  | Yes |  | 
CC(F)c1cc2[nH]c(=O)n(NS(C)(=O)=O)c(=O)c2cc1-c1ccnn1C(C)C (centres unmarked) [Compound C-17, N-[7-(1-fluoro-ethyl)-6-(2-isopropyl-2H-pyrazol-3-yl)-2,4-dioxo-1,4-dihydro-2H-quinazolin-3-yl]-methanesulfonamide] |  | Yes | > 20 mg/kg | 
Cn1nccc1-c1cc2c(=O)n(NS(C)(=O)=O)c(=O)[nH]c2cc1C(F)(F)F [Compound C-18, N-[6-(2-Methyl-2H-pyrazol-3-yl)-2,4-dioxo-7-trifluoromethyl-1,4-dihydro-2H-quinazolin-3-yl]-methanesulfonamide] |  | Yes | 14.8 mg/kg | 

From patent US20120122903A1, “1-H-QUINAZOLINE-2, 4-DIONES FOR USE IN THE TREATMENT OF NEURONAL CEROID LIPOFUSCINOSIS” (priority 2009, published 2012)
